From patent publication US10017767B2, “Targets in multiple myeloma and other disorders” (FONDAZIONE CENTRO SAN RAFFAELE, priority 2012, dated 2018) come the findings set out here.

Series [1] concerns U266 MM cell line. Nature of the series: Apoptosis by Annexin V-FITC/PI staining, U266. The format is cell-based. The settings on record: 10 μM, untreated 10%. The protocol: (§1) In particular, cells were washed twice with room-temperature PBS, resuspended in 100 μL of Annexin binding buffer, and stained with specific antibodies for 20 minutes.
Series [2] concerns MM.1S cells. Nature of the series: Apoptosis by Annexin V-FITC/PI staining, MM.1S. The format is cell-based, human. The settings on record: 10 μM, untreated 11%. Here is the method: as §1
Series [3] can be described thus: MTT viability assay, U266. The format is cell-based. The settings on record: human, U266 multiple myeloma cells, 10 μM. The protocol:
Viability of MM cells was evaluated by 3-[4,5-dimethylthiazol-2-yl]-2,5-diphenyltetrazolium bromide (MTT) colorimetric survival assay. MM cells (20,000-50,000) were plated in 100 μL medium. At the various time points (24-96 hours), 10 μL 5 mg/mL MTT were added to plated cells. After 4 hour incubation at 37° C., medium was discarded and 100 μL MTT stop solution (Isopropanonol with […] Hcl) used to dissolve MTT metabolic products. Absorbance was read at 570 nm and background was subtracted at 630 nm, using spectrophotometer SPECTRAMAX M2 machine and Softmax Pro v5 software. Cellular growth was estimated by cell counting in triplicates, excluding dead cells stained by trypan blue.

The subject of series [4] is YAP1. Description: YAP1 levels in MM cells after treatment. In kind it is cell-based. The protocol:
MM cells were harvested and lysed using lysis buffer: 50 mMTris-HCl (pH 7.4), 150 mM NaCl, 1% NP-40, 5 mM EDTA, 5 mM NaF, 2 mM Na3VO4, 1 mM PMSF, 5 μg/mL leupeptine, and 5 μg/mL aprotinin. Nuclear extracts were prepared using Nuclear Extraction Kit (Panomics). Cell lysates were subjected to sodium dodecyl sulfate-polyacrylamide gel electrophoresis SDS-PAGE, transferred to nitrocellulose membranes, and immunoblotted with different antibodies: ATM, phospho-ATM (Ser1981), ATR, phospho-ATR (Ser428), CHK2, phospho-CHK2 (Thr68), CHK1, phospho-CHK1 (Ser296), p21, p53, phospho-p53 (ser127), STK4, LATS1, phospho-LATS1 (Ser909), phospho-ABL1 (Thr735), cleaved caspase 3, cleaved PARP, histone H3, SAPK/JNK, phospho-SAPK/JNK (Thr183/Tyr185), GM130, GAPDH, and α-tubulin (Cell Signaling); STK4, Nuclear Matrix Protein p84 (Abeam), p73 (BD), phospho-H2A.X (Ser139) (Millipore); as well as ABL1, BAX, Puma, Noxa, actin and nucleolin (Santa Cruz Biotechnology).

The test system of series [5] is leukemia and lymphoma cell lines. Nature of the series: MTT growth inhibition and Annexin V-PI apoptosis in a leukemia and lymphoma cell line panel. In kind it is cell-based. The settings on record: cell lines where the DNA damage-ABL1-YAP1 axis was activated.
The subject of series [6] is HL-60. Description: MTT / Annexin V-PI, HL-60. The settings on record: HL-60, YAP1 basal expression. In kind it is cell-based.
For series [7], the system named is RL. Description: MTT / Annexin V-PI, RL. The format is cell-based. The following applies: no nuclear ABL1.
For series [8], the target named is T1, STK4 (Homo sapiens, UniProt Q13043).
T1 sequence (Q13043 1-487): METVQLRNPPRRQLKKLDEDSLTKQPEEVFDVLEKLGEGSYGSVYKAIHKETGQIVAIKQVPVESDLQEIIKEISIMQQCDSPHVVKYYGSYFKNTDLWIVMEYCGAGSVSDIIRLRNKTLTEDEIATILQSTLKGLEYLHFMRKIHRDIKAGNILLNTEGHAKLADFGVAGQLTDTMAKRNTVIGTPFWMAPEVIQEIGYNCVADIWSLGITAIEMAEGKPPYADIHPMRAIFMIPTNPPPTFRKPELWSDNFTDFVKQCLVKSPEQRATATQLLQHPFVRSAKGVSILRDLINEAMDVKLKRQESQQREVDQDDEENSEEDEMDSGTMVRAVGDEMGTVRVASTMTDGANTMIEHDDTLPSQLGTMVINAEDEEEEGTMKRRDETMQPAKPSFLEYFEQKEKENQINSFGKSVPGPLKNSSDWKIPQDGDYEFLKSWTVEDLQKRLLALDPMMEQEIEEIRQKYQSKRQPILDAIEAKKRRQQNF
Description: STK4 biochemical kinase inhibition.

The test system of series [9] is MM cell lines. Nature of the series: Cell growth in a large panel of MM cell lines. In kind it is cell-based.
The subject of series [10] is KMS-20 cell line, with YAP1 deletion. Description: Cell growth in YAP1-deleted KMS-20. In kind it is cell-based. The settings on record: KMS-20, YAP1 deleted.
For series [11], the system named is ALL (Jurkat) and AML (OCI/AML3) cell lines. Description: YAP1 levels, cell number and apoptosis in ALL and AML cell lines. In kind it is cell-based.

By viability is commonly meant a read-out of living cells in per cent, often relative to untreated cells. Take `COc1cc(Nc2c(C#N)cnc3cc(OCCCN4CCN(C)CC4)c(OC)cc23)c(Cl)cc1Cl` [SKI-606]: in series [1], the “apoptosis (Annexin V-PI)” value turned out to be 58%. The “apoptosis (Annexin V-FITC/PI)” value in [2] is 76%. For the same compound, the viability at 24 h, 10 µM in series [3] (24 h, read-out: 24 hour viability (MTT, normalized to DMSO)) is 93.8%. Also, the viability at 48 h, 10 µM in series [3] (48 h, read-out: 48 hour viability (MTT, normalized to DMSO)) stood at 76.1%. In addition, the viability at 72 h, 10 µM in series [3] (72 h, read-out: 72 hour viability (MTT, normalized to DMSO)) came to 53.8%. In addition, the viability at 96 h, 10 µM in [3] (96 h, read-out: 96 hour viability (MTT, normalized to DMSO)) is 28.5%. For the same compound, in series [4] (MM.1S and U266, 10 μM), the “YAP1 expression after treatment” value was “significant increase of YAP1 expression”. The “cellular proliferation and survival” value in series [5] is listed as “profoundly reduced”. The response to treatment result in [6] and in [7] was “did not respond to the treatment” in each case.
The term IC50 denotes the concentration at which inhibition is half-maximal. Higher therefore signals a need for much substance. The compound `NS(=O)(=O)c1ccc(N/N=C2\C(=O)Nc3ccc4ncccc4c32)cc1` [GW305178X] showed an IC50 in series [8] of 12 nM. Moreover, the “effect on cell growth / proliferation in MM cell lines” value in series [9] was “reduced proliferation in most cell lines with low YAP1 levels”. For the same compound, in series [10], the “activity against KMS-20” value was “not active”. Besides, the “YAP1 levels after treatment” value in series [4] (MM cells) is given as “robust increase in YAP1 levels”. In addition, the “YAP1 levels, cell number and apoptosis” value in [11] was “increased YAP1 levels, reduced cell number, and enhanced apoptosis”.
